According to patent US20070259903A1 (priority 2006, published 2007):
In brackets after ≈: the same amount, converted by molar mass. Like-named read-outs stand apart in the source and are kept apart here.

Tests used:
Flu A (H3N2) = assay: Virucidal activity: virus pre-incubated with compound, applied to MDCK cells 1 h, removed, CPE after 6 days; format: cell-based, influenza A virus
Flu A (H5N1) = format: cell-based, influenza A virus; conditions: virus treated one hour
Flu B Shanghai virus = assay: Virucidal activity: virus pre-incubated with compound 1 h, applied to MDCK cells 1 h, removed, CPE after 6 days; format: cell-based, influenza B virus
Description: For each test, a stock solution of the lead Compound C1 was made by first dissolving it in a small amount (50-100 microliters) of absolute ethanol (ETOH) followed by addition of growth nutrient medium to a final volume of 1 ml to bring the stock concentration of 20 mg/ml. It was tested at a concentration of 100 μg/ml, with half-log dilutions down to 0.032 μg/ml.
The compound C1 and the virus being tested were incubated together at 8 different concentrations for 1 hour at 37° C. Then virus/compound mixture applied to established cultured MDCK (Madin-Darby canine kidney) cells for 1 hour at 37° C. After 1 hour, the Virus/compound were removed, and replaced with new virus/compound free medium, and the indicator cells were further incubated for 6 days. Virus that survived the one hour pre-incubation and one hour exposure to indicator cells caused cytopathic effect (CPE) development. Results were evaluated by microscopic inspection (visual) as well as a spectrophotometic Neutral Red Dye Assay. The values shown represent the concentration (μg/ml) of C1 that caused a 50% virucidal effect (EC50). […]
The EC50 values were calculated by extrapolation from a plot of concentration versus virucidal activity data on semi-log paper. This allowed us to quantify complete virus killing of a small amount of virus (about 50-100 cell culture infectious doses).

SARS (urbani) = format: cell-based, Severe Acute Respiratory Syndrome (SARS) virus
[1] = system: Flu A (H5N1) Vietnam/1203/2004 H; format: cell-based, influenza A virus; conditions: MDCK cells, continuous exposure
Flu B Shanghai/361/02 = format: cell-based, influenza B virus; conditions: MDCK cells, continuous exposure
Description: (§1) The antiviral activity of barbituric acid analogs was also evaluated under conditions where the indicator cells to which virus had been previously added and then continuously exposed to different concentrations of C1 for the duration of the experiments. Eight different doses of C1 ranging from 100 μg/ml to half-log dilutions down to 0.032 μg/ml were added to the indicator cells after adding the indicated virus. This virus-cell combination was continuously exposed to C1 until untreated control wells developed a cytopathic effect (CPE) usually after 4 to 6 days of incubation at 37° C. At the end of incubation period at 37° C., the resulting cytopathic effect (CPE) in control and test wells was assessed by visual and a Neutral Red Dye assay.
(§2) Results of CPE versus concentration of C1 were plotted on a semi-log paper and the dose of C1 that caused a 50% inhibition of virus mediated CPE (EC50) was calculated.

Measles Chicago = format: cell-based; conditions: CV-1 cells, continuous exposure
Description: as §1, §2

Rhinovirus HGP = format: cell-based; conditions: HeLa Ohio-1 cells, continuous exposure
Description: as §1, §2

PIV 14702 = format: cell-based, Parainfluenza virus; conditions: MA-104 cells, continuous exposure
Description: as §1, §2

RSV A A2 = format: cell-based, Respiratory Synsycitial virus; conditions: MA-104 cells, continuous exposure
Description: as §1, §2

[2] = system: Influenza A/New Caledonia/20/99 (H1N1); assay: ETOH vs DMSO comparison: compound + virus 1 h at room temperature, then left on indicator cells 3 days, neutral red; format: cell-based, influenza A virus; conditions: exposed to c1 + virus for 3 days
[3] = system: Influenza A/New Caledonia/20/99 (H1N1); assay: ETOH vs DMSO comparison: compound + virus 1 h at room temperature, on indicator cells 1 hour then removed, neutral red; format: cell-based, influenza A virus; conditions: exposed to c1 + virus for 1 hour
[4] = system: Influenza A/California/7/04 (H3N2); assay: ETOH vs DMSO comparison: compound + virus 1 h at room temperature, then left on indicator cells 3 days, neutral red; format: cell-based, influenza A virus; conditions: exposed to c1 + virus for 3 days
[5] = system: Influenza A/California/7/04 (H3N2); assay: ETOH vs DMSO comparison: compound + virus 1 h at room temperature, on indicator cells 1 hour then removed, neutral red; format: cell-based, influenza A virus; conditions: exposed to c1 + virus for 1 hour

## CCCCN1C(=O)CC(=O)N(CCCC)C1=S [Compound C1, 4,6(1H, 5H)-Pyrimidinedione, 1,3-dibutyldihydro-2-thioxo]
Flu A (H3N2); FIG. 2
  inactivation of the virus by treatment: virtually complete inactivation
Flu A (H3N2); visual method, virus treated for 4 hours (so in the source), MDCK indicator cells
  dose that caused a 50% inactivation (EC50): 5.5 µg/mL
Flu A (H5N1); Neutral red assay, after 6 days
  dose that caused a 50% inactivation (EC50): 37 µg/mL
Flu A (H5N1); visual method, % CPE after 6 days
  dose that caused a 50% inactivation (EC50): 6.0 µg/mL
Flu B Shanghai virus; Neutral red dye assay
  dose causing 50% inactivation of the virus: 37 µg/mL
Flu B Shanghai virus; visual method
  dose causing 50% inactivation of the virus: 42 µg/mL
SARS (urbani); Neutral Red dye assay
  dose causing 50% inactivation of the virus: 53 µg/mL
SARS (urbani); visual method
  dose causing 50% inactivation of the virus: 12 µg/mL
[1]; Neutral Red
  EC50: 3 µg/mL (≈ 11.7 µM)
[1]; Visual
  EC50: 3 µg/mL (≈ 11.7 µM)
Flu B Shanghai/361/02; Neutral Red
  EC50: 3 µg/mL
Flu B Shanghai/361/02; Visual
  EC50: 3 µg/mL
Measles Chicago; Neutral Red
  EC50: 40 µg/mL
Measles Chicago; Visual
  EC50: 30 µg/mL
Rhinovirus HGP; Neutral Red
  EC50: 30 µg/mL
Rhinovirus HGP; Visual
  EC50: 30 µg/mL
PIV 14702; Neutral Red
  EC50: 30 µg/mL
PIV 14702; Visual
  EC50: 30 µg/mL
RSV A A2; Neutral Red
  EC50: 30 µg/mL
RSV A A2; Visual
  EC50: 30 µg/mL
[2]; DMSO versus ETOH
  Increase virucidal activity of C1 in DMSO: 200%
[2]; dissolved in DMSO, neutral red
  EC50 of C1 in DMSO: >2.6 µg/mL
[2]; dissolved in ETOH, neutral red
  EC50 of C1 in ETOH: >4.5 µg/mL
[3]; DMSO versus ETOH
  Increase virucidal activity of C1 in DMSO: 140%
[3]; dissolved in DMSO, neutral red
  EC50 of C1 in DMSO: 30.0 µg/mL
[3]; dissolved in ETOH, neutral red
  EC50 of C1 in ETOH: 42.0 µg/mL
[4]; DMSO versus ETOH
  Increase virucidal activity of C1 in DMSO: 0%
[4]; dissolved in DMSO, neutral red
  EC50 of C1 in DMSO: >1.9 µg/mL
[4]; dissolved in ETOH, neutral red
  EC50 of C1 in ETOH: >1.8 µg/mL
[5]; DMSO versus ETOH
  Increase virucidal activity of C1 in DMSO: 220%
[5]; dissolved in DMSO, neutral red
  EC50 of C1 in DMSO: 20.0 µg/mL
[5]; dissolved in ETOH, neutral red
  EC50 of C1 in ETOH: 42.0 µg/mL
